Test results as given in PubChem BioAssay AID1963865 (Molecular Pharmacology Branch, DTP, NCI, 2024).

System: KRAS PDC multicell spheroid viability
Experiment: Anticancer human tumor 825966-067-R-J1-PDC patient-derived colon carcinoma cell line growth inhibition [KRAS2]
Details: for IC50: curve of first compound; for viability, T/C: stronger effect = lower value
Description: Multicellular complex tumor spheroid response to RAS pathway inhibitors in combination with a targeted agents in patient-derived cell lines with oncogenic KRAS variants from multiple cancer types
A high-throughput screen of multi-cell type tumor spheroids was designed to identify active combinations of targeted small molecules and KRAS pathway inhibitors. Complex spheroids include a stromal component modeled by human endothelial cells (HUVEC) and fibroblasts modeled by human mesenchymal stem cells (MSCs). The concentration ranges selected for each drug and investigational agent were based upon clinically achievable concentrations if the clinical Cmax of the agent was known.
Compounds. The drugs and investigational agents: BI-3406 (NSC825286), BAY-293 (NSC824723), batoprotafib (TNO155; NSC825523), sotorasib (AMG 510; NSC818433), MRTX1257 (NSC819558), elimusertib (BAY 1895344; NSC800525), molibresib (GSK525762; NSC774829), temuterkib (LY3214996; NSC803410), venetoclax (NSC766270), alisertib (NSC759677), olaparib (NSC753686), talazoparib (NSC767125), erdafitinib (NSC781556), ipatasertib (NSC767898), cabozantinib (NSC761068), nintedanib (NSC756659), abemaciclib (NSC768073), docetaxel (NSC628503), trametinib (NSC758246), and sapanisertib (NSC764658) were obtained from the National Cancer Institute (NCI) Developmental Therapeutics Program Chemical Repository. The FDA-approved anticancer drug set is available from the Developmental Therapeutics Program. […] The stock solutions were prepared in dimethyl sulfoxide (DMSO, Sigma-Aldrich, St. Louis, MO, cat. D2650) at 800-fold the tested concentration and stored at -70 degrees C prior to their use. All drugs and investigational agents were tested over a range starting from a high concentration at or near the clinical Cmax and decreasing in half-log increments. If the clinical Cmax for an agent had not been determined, the highest concentration tested was 10 microM.
Cell Culture. All cells were maintained in an incubator at 37 degrees C and 5% CO2 with 95% humidity. The PDC lines were cultured according to standard operating procedures established by the NCI PDMR (https://pdmr.cancer.gov/sops/default.htm). Briefly, all PDCs were thawed and cultured in Matrigel-coated flasks prepared with a working solution of 1X Ham's F-12 nutrient mix, without supplementation (Invitrogen, Waltham, MA, cat. 11765054), 100 U/mL penicillin-streptomycin (Invitrogen, cat. 15140122), and 2.5% Matrigel (Corning Inc., Corning, NY, cat. 354248) for the first three passages. All PDCs were cultured in complete DMEM/F-12 media containing advanced DMEM/F-12 (Invitrogen, cat. 12634028), 4.9% defined fetal bovine serum, heat inactivated (HyClone Laboratories Inc., Logan, UT, cat. SH30070.03HI), 389 ng/mL hydrocortisone (Sigma-Aldrich, cat. H4001), 9.7 ng/mL human EGF recombinant protein (Invitrogen, cat. PHG0313), 23.4 microg/mL adenine (Sigma-Aldrich, cat. A2786), 97.3 U/mL penicillin-streptomycin (Invitrogen, cat. 15140122), 1.9 mM L-glutamine (Invitrogen, cat. 25030081), and 9.7 microM Y-27632 dihydrochloride (Tocris Bioscience, Bristol, United Kingdom, cat. 1254). The PDCs were cultured in complete DMEM/F12 media without 9.7 microM Y-27632 dihydrochloride for at least two passages prior to the screen. The established cell line HOP-62 was cultured in RPMI 1640 medium, HEPES (Invitrogen, cat. 22400105) with 10% defined fetal bovine serum (HyClone Laboratories Inc., cat. SH30070.03) and 2 mM L-glutamine (Invitrogen, cat. 25030081). The pooled donor HUVEC were cultured in endothelial cell growth medium 2 (PromoCell, Heidelberg, Germany, cat. C-22011) and the hMSC were cultured in mesenchymal stem cell growth medium 2 (PromoCell, cat. C-28009). For all experiments, HUVEC and hMSC were used at passages </=5, while the malignant cell lines were used at passages </=15. […]

[1] = second compound 0.1 µM, first compound 0.000316 µM
[2] = second compound 0.1 µM, first compound 0.001 µM
[3] = second compound 0.1 µM, first compound 0.00316 µM
[4] = second compound 0.1 µM, first compound 0.01 µM
[5] = second compound 0.1 µM, first compound 0.0316 µM
[6] = second compound 0.316 µM, first compound 0.000316 µM
[7] = second compound 0.316 µM, first compound 0.001 µM
[8] = second compound 0.316 µM, first compound 0.00316 µM
[9] = second compound 0.316 µM, first compound 0.01 µM
[10] = second compound 0.316 µM, first compound 0.0316 µM
[11] = second compound 1 µM, first compound 0.000316 µM
[12] = second compound 1 µM, first compound 0.001 µM
[13] = second compound 1 µM, first compound 0.00316 µM
[14] = second compound 1 µM, first compound 0.01 µM
[15] = second compound 1 µM, first compound 0.0316 µM
[16] = second compound 3.16 µM, first compound 0.000316 µM
[17] = second compound 3.16 µM, first compound 0.001 µM
[18] = second compound 3.16 µM, first compound 0.00316 µM
[19] = second compound 3.16 µM, first compound 0.01 µM
[20] = second compound 3.16 µM, first compound 0.0316 µM
[21] = second compound 10 µM, first compound 0.000316 µM
[22] = second compound 10 µM, first compound 0.001 µM
[23] = second compound 10 µM, first compound 0.00316 µM
[24] = second compound 10 µM, first compound 0.01 µM
[25] = second compound 10 µM, first compound 0.0316 µM
[26] = second compound 0.1 µM, first compound 0.1 µM
[27] = second compound 0.316 µM, first compound 0.1 µM
[28] = second compound 1 µM, first compound 0.1 µM
[29] = second compound 3.16 µM, first compound 0.1 µM
[30] = second compound 10 µM, first compound 0.1 µM
[31] = second compound 0.1 µM, first compound 0.316 µM
[32] = second compound 0.1 µM, first compound 1 µM
[33] = second compound 0.1 µM, first compound 3.16 µM
[34] = second compound 0.1 µM, first compound 10 µM
[35] = second compound 0.316 µM, first compound 0.316 µM
[36] = second compound 0.316 µM, first compound 1 µM
[37] = second compound 0.316 µM, first compound 3.16 µM
[38] = second compound 0.316 µM, first compound 10 µM
[39] = second compound 1 µM, first compound 0.316 µM
[40] = second compound 1 µM, first compound 1 µM
[41] = second compound 1 µM, first compound 3.16 µM
[42] = second compound 1 µM, first compound 10 µM
[43] = second compound 3.16 µM, first compound 0.316 µM
[44] = second compound 3.16 µM, first compound 1 µM
[45] = second compound 3.16 µM, first compound 3.16 µM
[46] = second compound 3.16 µM, first compound 10 µM
[47] = second compound 10 µM, first compound 0.316 µM
[48] = second compound 10 µM, first compound 1 µM
[49] = second compound 10 µM, first compound 3.16 µM
[50] = second compound 10 µM, first compound 10 µM
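Also: spheroids exposed to compounds for 7 days.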
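For viability, T/C in this document: 100% = DMSO vehicle control viability.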

Compound: CC(=O)Nc1cccc(-n2c(=O)n(C3CC3)c(=O)c3c(Nc4ccc(I)cc4F)n(C)c(=O)c(C)c32)c1 + C=CC(=O)N1CCN(c2nc(=O)n(-c3c(C)ccnc3C(C)C)c3nc(-c4c(O)cccc4F)c(F)cc23)C(C)C1
- IC50 (second compound 0.1 µM): 17 nM
- IC50 (second compound 0.316 µM): 22.8 nM
- IC50 (second compound 1 µM): > 31.6 nM
- IC50 (second compound 3.16 µM): 27.5 nM
- IC50 (second compound 10 µM): 14.1 nM
- viability, T/C (second compound 0.1 µM, first compound 0.0001 µM): 91.9%
- viability, T/C [1]: 84.9%
- viability, T/C [2]: 99.5%
- viability, T/C [3]: 128%
- viability, T/C [4]: 72.5%
- viability, T/C [5]: 23.7%
- viability, T/C (second compound 0.316 µM, first compound 0.0001 µM): 84.8%
- viability, T/C [6]: 82.7%
- viability, T/C [7]: 111%
- viability, T/C [8]: 129%
- viability, T/C [9]: 95.6%
- viability, T/C [10]: 31.8%
- viability, T/C (second compound 1 µM, first compound 0.0001 µM): 92.2%
- viability, T/C [11]: 89.4%
- viability, T/C [12]: 99.8%
- viability, T/C [13]: 114%
- viability, T/C [14]: 102%
- viability, T/C [15]: 52.5%
- viability, T/C (second compound 3.16 µM, first compound 0.0001 µM): 72.2%
- viability, T/C [16]: 97.7%
- viability, T/C [17]: 95.4%
- viability, T/C [18]: 97.3%
- viability, T/C [19]: 80.2%
- viability, T/C [20]: 45.9%
- viability, T/C (second compound 10 µM, first compound 0.0001 µM): 81.3%
- viability, T/C [21]: 89.5%
- viability, T/C [22]: 77.3%
- viability, T/C [23]: 101%
- viability, T/C [24]: 55.2%
- viability, T/C [25]: 37.6%

Compound: CC(C)n1nc(-c2ccc3oc(N)nc3c2)c2c(N)ncnc21 + C=CC(=O)N1CCN(c2nc(=O)n(-c3c(C)ccnc3C(C)C)c3nc(-c4c(O)cccc4F)c(F)cc23)C(C)C1
- IC50 (second compound 0.1 µM): > 100 nM
- IC50 (second compound 0.316 µM): > 100 nM
- IC50 (second compound 1 µM): > 100 nM
- IC50 (second compound 3.16 µM): > 100 nM
- IC50 (second compound 10 µM): > 100 nM
- viability, T/C [1]: 113%
- viability, T/C [2]: 116%
- viability, T/C [3]: 114%
- viability, T/C [4]: 147%
- viability, T/C [5]: 130%
- viability, T/C [26]: 142%
- viability, T/C [6]: 112%
- viability, T/C [7]: 96.7%
- viability, T/C [8]: 118%
- viability, T/C [9]: 130%
- viability, T/C [10]: 154%
- viability, T/C [27]: 101%
- viability, T/C [11]: 106%
- viability, T/C [12]: 102%
- viability, T/C [13]: 129%
- viability, T/C [14]: 138%
- viability, T/C [15]: 89.9%
- viability, T/C [28]: 107%
- viability, T/C [16]: 103%
- viability, T/C [17]: 99.5%
- viability, T/C [18]: 103%
- viability, T/C [19]: 119%
- viability, T/C [20]: 114%
- viability, T/C [29]: 114%
- viability, T/C [21]: 89.6%
- viability, T/C [22]: 94.7%
- viability, T/C [23]: 106%
- viability, T/C [24]: 93.5%
- viability, T/C [25]: 79.4%
- viability, T/C [30]: 76.5%

Compound: COc1cc(Nc2ncc3c(n2)-c2ccc(Cl)cc2C(c2c(F)cccc2OC)=NC3)ccc1C(=O)O + C=CC(=O)N1CCN(c2nc(=O)n(-c3c(C)ccnc3C(C)C)c3nc(-c4c(O)cccc4F)c(F)cc23)C(C)C1
- IC50 (second compound 0.1 µM): > 10000 nM
- IC50 (second compound 0.316 µM): > 10000 nM
- IC50 (second compound 1 µM): > 10000 nM
- IC50 (second compound 3.16 µM): > 10000 nM
- IC50 (second compound 10 µM): > 10000 nM
- viability, T/C [5]: 144%
- viability, T/C [26]: 117%
- viability, T/C [31]: 141%
- viability, T/C [32]: 140%
- viability, T/C [33]: 138%
- viability, T/C [34]: 133%
- viability, T/C [10]: 116%
- viability, T/C [27]: 107%
- viability, T/C [35]: 135%
- viability, T/C [36]: 140%
- viability, T/C [37]: 154%
- viability, T/C [38]: 134%
- viability, T/C [15]: 88.9%
- viability, T/C [28]: 107%
- viability, T/C [39]: 96%
- viability, T/C [40]: 127%
- viability, T/C [41]: 123%
- viability, T/C [42]: 118%
- viability, T/C [20]: 104%
- viability, T/C [29]: 93.5%
- viability, T/C [43]: 142%
- viability, T/C [44]: 118%
- viability, T/C [45]: 144%
- viability, T/C [46]: 103%
- viability, T/C [25]: 83.3%
- viability, T/C [30]: 66%
- viability, T/C [47]: 97.7%
- viability, T/C [48]: 79.5%
- viability, T/C [49]: 116%
- viability, T/C [50]: 90.5%

Compound: COc1cc2nccc(Oc3ccc(NC(=O)C4(C(=O)Nc5ccc(F)cc5)CC4)cc3)c2cc1OC + C=CC(=O)N1CCN(c2nc(=O)n(-c3c(C)ccnc3C(C)C)c3nc(-c4c(O)cccc4F)c(F)cc23)C(C)C1
- IC50 (second compound 0.1 µM): 1730 nM
- IC50 (second compound 0.316 µM): 1590 nM
- IC50 (second compound 1 µM): 1690 nM
- IC50 (second compound 3.16 µM): 1520 nM
- IC50 (second compound 10 µM): 461 nM
- viability, T/C [5]: 108%
- viability, T/C [26]: 111%
- viability, T/C [31]: 81.8%
- viability, T/C [32]: 88.8%
- viability, T/C [33]: 6.77%
- viability, T/C [34]: 8.36%
- viability, T/C [10]: 91.1%
- viability, T/C [27]: 122%
- viability, T/C [35]: 71.7%
- viability, T/C [36]: 78.3%
- viability, T/C [37]: 6.54%
- viability, T/C [38]: 10.2%
- viability, T/C [15]: 111%
- viability, T/C [28]: 118%
- viability, T/C [39]: 85.8%
- viability, T/C [40]: 87.5%
- viability, T/C [41]: 2.49%
- viability, T/C [42]: 8.75%
- viability, T/C [20]: 88.4%
- viability, T/C [29]: 77%
- viability, T/C [43]: 90%
- viability, T/C [44]: 76.1%
- viability, T/C [45]: 2.99%
- viability, T/C [46]: 6.07%
- viability, T/C [25]: 97.4%
- viability, T/C [30]: 78.5%
- viability, T/C [47]: 56.1%
- viability, T/C [48]: 41.7%
- viability, T/C [49]: 2%
- viability, T/C [50]: 2.5%
